The record followed here is patent US20060063759A1, “Tricyclic steroid hormone nuclear receptor modulators” (priority 2002, published 2006).

For one test, the target named is T1, human MR (Homo sapiens, UniProt P08235).
T1 construct: The full length human MR gene is cloned from a human kidney or human brain cDNA library; His tag from the pAcHLT vector (own knowledge); made in house; host or cells: Sf9 insect cells (baculovirus, pAcHLT transfer vector)
T1 sequence (P08235 1-984): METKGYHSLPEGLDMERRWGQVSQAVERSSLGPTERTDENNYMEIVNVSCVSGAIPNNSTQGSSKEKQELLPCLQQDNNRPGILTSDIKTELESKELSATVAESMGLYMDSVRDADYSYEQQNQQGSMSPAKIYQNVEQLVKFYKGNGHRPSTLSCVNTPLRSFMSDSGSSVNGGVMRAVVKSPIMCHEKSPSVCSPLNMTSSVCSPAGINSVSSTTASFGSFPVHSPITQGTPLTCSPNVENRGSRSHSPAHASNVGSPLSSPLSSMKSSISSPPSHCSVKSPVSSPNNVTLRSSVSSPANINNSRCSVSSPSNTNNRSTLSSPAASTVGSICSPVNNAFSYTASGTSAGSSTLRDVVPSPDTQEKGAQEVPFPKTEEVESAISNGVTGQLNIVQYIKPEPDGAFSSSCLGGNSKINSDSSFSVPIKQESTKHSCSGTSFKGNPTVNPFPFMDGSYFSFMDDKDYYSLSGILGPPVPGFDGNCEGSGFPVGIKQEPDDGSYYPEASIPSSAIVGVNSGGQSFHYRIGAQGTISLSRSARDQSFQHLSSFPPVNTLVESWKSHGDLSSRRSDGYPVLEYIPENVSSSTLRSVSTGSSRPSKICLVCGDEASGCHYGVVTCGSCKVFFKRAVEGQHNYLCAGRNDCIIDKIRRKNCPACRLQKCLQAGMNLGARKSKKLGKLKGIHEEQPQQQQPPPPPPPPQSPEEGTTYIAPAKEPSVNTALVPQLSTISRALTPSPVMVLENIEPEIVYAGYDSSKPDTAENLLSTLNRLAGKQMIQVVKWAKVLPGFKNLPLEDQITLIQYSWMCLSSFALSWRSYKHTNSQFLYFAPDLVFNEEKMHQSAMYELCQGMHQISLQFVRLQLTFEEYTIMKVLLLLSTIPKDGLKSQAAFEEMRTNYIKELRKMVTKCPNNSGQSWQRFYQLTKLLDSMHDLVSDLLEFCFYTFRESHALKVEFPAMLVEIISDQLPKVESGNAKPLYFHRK
Kind of test: Mineralocorticoid Receptor Binding Assay ([3H]-aldosterone). The conditions noted are these: [3H]-aldosterone binding, human MR expressed in Sf9 cells; read-out: MR Ki. The procedure, abridged: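 Lysate supernatant of Sf9 cells expressing full-length human MR (20-25 μg protein) was incubated with 0.5 nM [3H]-aldosterone and test compound in molybdate/Tris/phosphate/glycerol buffer, pH 7.5, ~16 h at 4 °C. Bound ligand was filtered and counted by scintillation; IC50 is the concentration halving [3H]-aldosterone binding.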

A further test concerns the target T2, glucocorticoid receptor (Homo sapiens, UniProt P04150).
T2 construct: containing 50-200 ug of A549 cell extract and 1.86 nM [^3H]-dexamethasone; host or cells: A549 human lung epithelial cells (sonicated cell extract)
T2 sequence (P04150 1-777): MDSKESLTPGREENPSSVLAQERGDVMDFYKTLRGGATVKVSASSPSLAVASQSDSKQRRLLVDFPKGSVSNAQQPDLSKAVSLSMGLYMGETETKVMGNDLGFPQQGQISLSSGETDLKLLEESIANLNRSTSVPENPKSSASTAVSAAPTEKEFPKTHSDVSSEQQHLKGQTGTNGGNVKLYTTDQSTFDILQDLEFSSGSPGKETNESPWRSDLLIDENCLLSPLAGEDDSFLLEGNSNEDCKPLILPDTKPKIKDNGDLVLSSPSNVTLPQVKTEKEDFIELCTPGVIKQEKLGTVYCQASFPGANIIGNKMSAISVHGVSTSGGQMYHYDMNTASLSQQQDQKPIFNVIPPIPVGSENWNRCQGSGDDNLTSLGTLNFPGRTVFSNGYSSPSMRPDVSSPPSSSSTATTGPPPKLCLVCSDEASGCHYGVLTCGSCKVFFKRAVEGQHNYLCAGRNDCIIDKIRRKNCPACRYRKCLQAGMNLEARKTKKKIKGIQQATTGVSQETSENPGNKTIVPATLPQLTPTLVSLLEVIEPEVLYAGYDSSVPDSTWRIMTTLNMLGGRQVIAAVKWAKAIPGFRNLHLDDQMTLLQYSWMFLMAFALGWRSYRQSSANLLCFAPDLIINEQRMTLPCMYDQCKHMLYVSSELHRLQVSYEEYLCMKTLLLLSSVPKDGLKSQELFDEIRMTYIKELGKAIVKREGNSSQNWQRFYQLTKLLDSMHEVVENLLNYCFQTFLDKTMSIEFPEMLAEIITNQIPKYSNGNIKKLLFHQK
Kind of test: Glucocorticoid Receptor Binding Assay ([3H]-dexamethasone, A549 cell extract). The conditions noted are these: [3H]-dexamethasone binding, read-out: GR Ki. The procedure, abridged:
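A549 cell extract (50–200 ug) incubated with 1.86 nM [3H]-dexamethasone and test compound for 16 h at 4 °C in Tris-HCl pH 7.2 buffer with glycerol and molybdate. Unbound radioligand removed by dextran-coated charcoal, then supernatant bound counts measured by scintillation.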

Each structure is given as a SMILES string.

For the compound `O=c1[nH]c2ccc(/C=C3\c4ccc(F)cc4CCc4ncccc43)cc2[nH]1` [Example 487, (E)-5-(8-Fluoro-10,11-dihydro-benzo[4,5]cyclohepta[1,2-b]pyridin-5-ylidenemethyl)-1,3-dihydro-benzoimidazol-2-one], the inhibition constant Ki (usually the dissociation constant of the complex between target and ligand, obtained from inhibition or displacement) was below 500 nM on human MR and below 1000 nM on glucocorticoid receptor.
On the same counts, the results for `CS(=O)(=O)Nc1cc(F)cc(/C=C2\c3ccc(F)cc3CCc3ncccc32)c1` [Example 488, (E)-N-[3-Fluoro-5-(8-fluoro-10,11-dihydro-benzo[4,5]cyclohepta[1,2-b]pyridin-5-ylidenemethyl)-phenyl]-methanesulfonamide] are below 500 nM and below 500 nM.
With `C(=C1c2ccccc2CCc2sccc21)c1ccccc1` [Example 489], the inhibition constant (Ki) on human MR is below 500 nM; on glucocorticoid receptor, below 10000 nM.
On the same counts, the results for `Clc1ccc(C=C2c3ccccc3CCc3sccc32)c(Cl)c1` [Example 490] are below 1000 nM and below 10000 nM.
As for `Cc1cc(C)cc(C=C2c3ccccc3CCc3sccc32)c1` [Example 491], the inhibition constant Ki on human MR is below 500 nM; on glucocorticoid receptor, below 10000 nM.
Take `CS(=O)(=O)Nc1ccc(C=C2c3ccccc3CCc3sccc32)cc1` [Example 495]: the inhibition constant (Ki) on human MR and on glucocorticoid receptor was below 500 nM in each case.
For the compound `CS(=O)(=O)Nc1cccc(/C=C2\c3ccc(Cl)cc3CCc3sccc32)c1` [Example 496], the inhibition constant (Ki) at human MR and on glucocorticoid receptor was below 500 nM throughout.
`Nc1cccc(C=C2c3ccccc3CCc3ccsc32)c1` [Example 498]: the results for the inhibition constant Ki at human MR and at glucocorticoid receptor were below 500 nM and below 1000 nM, respectively.
As to `CS(=O)(=O)Nc1cccc(/C=C2/c3ccc(Cl)cc3CCc3sccc32)c1` [Example 499], the Ki on human MR and at glucocorticoid receptor was below 500 nM in each case.
For the compound `CS(=O)(=O)Nc1cccc(/C=C2\c3ccccc3CCc3ccsc32)c1` [Example 501], the inhibition constant (Ki) on human MR and at glucocorticoid receptor was below 500 nM in each case.
On to `CS(=O)(=O)Nc1cccc(/C=C2/c3ccccc3CCc3ccsc32)c1` [Example 502], for which the inhibition constant (Ki) at human MR and at glucocorticoid receptor was below 500 nM each time.
Regarding `O=S(=O)(Nc1cccc(/C=C2/c3ccccc3CCc3sccc32)c1)c1ccccc1` [Example 503], the Ki on human MR and at glucocorticoid receptor was below 500 nM each time.
Take `CS(=O)(=O)Nc1cccc(C=C2c3ccccc3CCc3occc32)c1` [Example 504]: the Ki at human MR and at glucocorticoid receptor was below 500 nM each time.
As to `CS(=O)(=O)Nc1cccc(C=C2c3ccccc3CCc3ncccc32)c1` [Example 505], the Ki at human MR is below 500 nM; at glucocorticoid receptor it was below 1000 nM.
`CS(=O)(=O)Nc1cccc(/C=C2\c3ccccc3CCc3ncccc32)c1` [Example 506]: the Ki at human MR and at glucocorticoid receptor was below 500 nM throughout.
Take `Oc1cccc(/C=C2/c3ccccc3CCc3ncccc32)c1` [Example 507]: the Ki on human MR and at glucocorticoid receptor was below 500 nM in each case.
Take `CS(=O)(=O)Nc1cccc(/C=C2/c3ccc(F)cc3CCc3ncccc32)c1` [Example 510]: the Ki is below 500 nM on human MR and below 10000 nM on glucocorticoid receptor.
For `Oc1cccc(/C=C2/c3ccccc3CCc3ccncc32)c1` [Example 514], the inhibition constant Ki on human MR was below 1000 nM; on glucocorticoid receptor it was below 500 nM.
Take `CS(=O)(=O)Nc1cccc(/C=C2\c3ccccc3CCc3ccncc32)c1` [Example 515]: the values for the Ki on human MR and at glucocorticoid receptor were below 500 nM and below 10000 nM, respectively.
On the same counts, the results for `CS(=O)(=O)Nc1cccc(C[C@H]2c3ccccc3CCc3ncccc32)c1` [Example 517] are below 500 nM and below 1000 nM.
For the compound `O=c1[nH]c2ccc(/C=C3/c4ccc(F)cc4CCc4ncccc43)cc2[nH]1` [Example 518], the Ki on human MR and on glucocorticoid receptor was below 500 nM in each case.
On to `CS(=O)(=O)Nc1cccc(CC2c3ccc(F)cc3CCc3ncccc32)c1` (centres unmarked) [Example 519], for which the Ki at human MR and on glucocorticoid receptor was below 500 nM in each case.
In the case of `CS(=O)(=O)Nc1cccc(CC2c3ccc(F)cc3CCc3ncccc32)c1` (centres unmarked) [Example 520], the Ki at human MR and at glucocorticoid receptor was below 500 nM in each case.
Consider `CS(=O)(=O)Nc1cccc(/C=C2/c3ccc(F)cc3CCc3nc(C(F)(F)F)ccc32)c1` [Example 521], for which the Ki at human MR and at glucocorticoid receptor was below 500 nM throughout.
`CS(=O)(=O)Nc1cccc(/C=C2\c3ccc(F)cc3CCc3nc(C(F)(F)F)ccc32)c1` [Example 522]: the Ki on human MR and on glucocorticoid receptor was below 500 nM each time.
In the case of `CS(=O)(=O)Nc1cc(/C=C2\c3ccc(F)cc3CCc3ncccc32)ccc1F` [Example 524], the Ki on human MR and at glucocorticoid receptor was below 500 nM in each case.
As for `CS(=O)(=O)Nc1cc(F)cc(/C=C2/c3ccc(F)cc3CCc3ncccc32)c1` [Example 525], the Ki at human MR and on glucocorticoid receptor was below 500 nM throughout.
As for `Fc1ccc2c(c1)CCc1ncccc1/C2=C/c1ccccc1` [Example 526], the Ki on human MR was below 500 nM; at glucocorticoid receptor it was below 10000 nM.
Turning to `Fc1ccc2c(c1)CCc1ncccc1/C2=C\c1ccccc1` [Example 527], the values for the Ki on human MR and at glucocorticoid receptor were below 500 nM and below 10000 nM, respectively.
On the same counts, the results for `Oc1ccc(/C=C2\c3ccc(F)cc3CCc3ncccc32)cc1` [Example 528] are below 500 nM and below 1000 nM.
On the same counts, the results for `Oc1ccc(/C=C2/c3ccc(F)cc3CCc3ncccc32)cc1` [Example 529] are below 500 nM and below 10000 nM.
On the same counts, the results for `Nc1ccccc1/C=C1\c2ccc(F)cc2CCc2ncccc21` [Example 530] are below 500 nM and below 500 nM.
In the case of `Nc1ccccc1/C=C1/c2ccc(F)cc2CCc2ncccc21` [Example 531], the Ki on human MR and on glucocorticoid receptor was below 500 nM throughout.
Take `Nc1cccc(/C=C2\c3ccc(F)cc3CCc3ncccc32)c1` [Example 532]: the values for the Ki on human MR and at glucocorticoid receptor were below 500 nM and below 1000 nM, respectively.
Take `Nc1cccc(/C=C2/c3ccc(F)cc3CCc3ncccc32)c1` [Example 533]: the Ki is below 500 nM at human MR and below 1000 nM on glucocorticoid receptor.
On the same counts, the results for `Nc1ccc(/C=C2\c3ccc(F)cc3CCc3ncccc32)cc1` [Example 534] are below 500 nM and below 10000 nM.
On the same counts, the results for `Nc1ccc(/C=C2/c3ccc(F)cc3CCc3ncccc32)cc1` [Example 535] are below 1000 nM and below 10000 nM.
Take `O=c1[nH]c2cc(/C=C3\c4ccc(F)cc4CCc4ncccc43)ccc2s1` [Example 536]: the inhibitory constant (Ki) on human MR and on glucocorticoid receptor was below 500 nM in each case.
On to `CS(=O)(=O)Nc1ccc(/C=C2/c3ccc(F)cc3CCc3ncccc32)cc1` [Example 537], for which the inhibitory constant (Ki) at human MR was below 500 nM; at glucocorticoid receptor, below 10000 nM.
On the same counts, the results for `CS(=O)(=O)Nc1cccc(CC2c3ccccc3CCc3cccnc32)c1` (centres unmarked) [Example 538] are below 500 nM and below 500 nM.
